As a reminder, the DC50 is the concentration giving 50% degradation. The Dmax is the greatest extent of degradation seen. The low end stands for shallow degradation, the high end for deep degradation.

Experimental findings from patent publication US20260199484A1, “PROTAC DEGRADERS OF MLLT1 AND/OR MLLT3” (DARK BLUE THERAPEUTICS LTD, priority 2024, published 2026) are described below.

Each structure is given as a SMILES string. Some results are limits rather than exact numbers.

In test [1] the test system is MV4-11 cells. Put plainly: MV4-11 cellular proliferative assay, Assay Format B (CTG 2.0, 168 h). The class given is cell-based. As to conditions: Homo sapiens, Assay Method B, Table 7, read-out: MV4-11 Antiproliferation IC50. In a few lines:
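Cells seeded at 600/well in IMDM + 10% FBS, incubated overnight, then exposed 168 h (7 days) at 37 °C to 10 concentrations, 3-fold dilutions from 1 uM or 100 nM top dose (0.3% DMSO final). Viability by CTG 2.0 luminescence as % of DMSO control; curves fitted by four-parameter logistic regression.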

Test [2] has as its target T1, MLLT1 (Homo sapiens, UniProt Q03111).
T1 sequence (Q03111 1-559): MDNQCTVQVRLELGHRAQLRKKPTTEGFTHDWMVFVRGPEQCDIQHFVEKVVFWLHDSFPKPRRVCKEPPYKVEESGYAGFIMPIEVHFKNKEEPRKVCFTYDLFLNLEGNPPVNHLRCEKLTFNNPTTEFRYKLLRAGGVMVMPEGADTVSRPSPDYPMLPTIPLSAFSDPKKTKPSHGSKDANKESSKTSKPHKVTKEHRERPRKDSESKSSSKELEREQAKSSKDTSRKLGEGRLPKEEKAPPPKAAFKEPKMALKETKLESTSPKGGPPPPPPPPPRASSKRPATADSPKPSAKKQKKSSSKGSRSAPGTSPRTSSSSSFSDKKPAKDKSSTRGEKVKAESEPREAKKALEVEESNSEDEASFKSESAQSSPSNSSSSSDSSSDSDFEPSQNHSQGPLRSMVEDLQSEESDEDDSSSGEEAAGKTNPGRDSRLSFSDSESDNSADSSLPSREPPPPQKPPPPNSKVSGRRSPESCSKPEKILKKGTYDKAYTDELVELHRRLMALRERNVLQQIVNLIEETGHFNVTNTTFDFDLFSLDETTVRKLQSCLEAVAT
The test is described as follows: MLLT1 DC50 and Dmax determination in MV4-11 cells (JESS, 4 h). The class given is cell-based. On the set-up: endogenous in cells; host or cells: MV4-11 (ATCC CRL-9591). As to conditions: MLLT1 degradation. Here is the method:
MLLT1 degradation efficacy of compounds was tested in an automated chemiluminescent detection system (JESS, Cat #004-650). MV4-11 (#CRL-9591, ATCC) were seeded at a density of 1.2 million cells/well in a non-treated 6-well cell culture plate in 2.4 mL of complete medium (IMDM+10% FBS+1× Penicillin-Streptomycin). 10 mM DMSO stocks were prepared, and cells were treated with eight concentrations of test compounds, starting from 100 nM, 5-fold dilution, at a final DMSO concentration of 0.1% and incubated for 4 h at 37° C., 5% CO2. Post incubation, cells were centrifuged, washed with HBSS and lysed in 60 μL of RIPA buffer supplemented with Protease inhibitors (sc-24948; Santa Cruz). Protein estimation was done using BCA protein assay kit (23228; Pierce). 4 gg protein lysate (4 μL of 1 μg/μL lysate) was loaded into each well of the JESS cartridge (SM-W004; Bio-techne) and the JESS run was performed using 1:900 dilution of anti-human MLLT1 antibody (ABE2596; Merck) and 1:1200 dilution of anti-human GAPDH antibody (2118; Cell signaling technology) with anti-rabbit secondary detection module (DM-001; Bio-Techne). Post run, data was analysed using “Compass for SW” software for chemiluminescent detection. Peak fit was done using “dropped lines” method. Peak area for MLLT1 and GAPDH was used for the calculation of MLLT1 degradation with respect to DMSO control. Data was shown as “% degradation”. % Degradation was plotted against the respective doses (test compound concentration) and dose-response curve (DRC) was generated using four-parameter logistic equation (non-linear regression). Following parameters for each DRC was captured: DC50 (concentration in nM at which degradation is 50%, interpolated from standard curve and transformed to linear scale), Dmax (maximum % degradation observed). DC50 and Dmax data are captured in Table 7 for Example 1 and Example 110, which is a comparative example.

In test [3] the test system is MV4-11 cells. The test is described as follows: MV4-11 cellular proliferative assay, Assay Format A (CellTiter-Glo, 120 h). The class given is cell-based. As to conditions: Homo sapiens, Assay method A, Table 3, read-out: MV4-11 antiproliferative IC50. An outline of the steps: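 MV4-11 cells seeded at 50 cells/well and exposed for 120 h to compound (10 semi-log dilutions, top 30 μM) or DMSO. Viability by CellTiter-Glo luminescence, normalised to DMSO and reference-compound wells; AC50 from Hill fit.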
In general terms: In ATP-based viability assays light output follows the ATP content of the culture.

For test [4], the target named is T1, MLLT1. Put plainly: MLLT1 HTRF IC50 determination assay (H3K9cro peptide displacement). The test is classed as binding. The source says:
(§1) This procedure is intended to measure the interaction between YEATS proteins and histone peptides modified by an appropriate epigenetic mark and can be used to assay compounds which bind to the YEATS proteins and inhibit this interaction. The assay uses 6His tagged MLLT1 or MLLT3 with an anti-6His antibody conjugated with Eu^3+ chelate (donor) and a biotinylated peptide with Streptavidin conjugated XL-665 (acceptor). When the donor and acceptor labels are in close proximity, by binding of the peptide by MLLT1 or MLLT3, the excitation of the donor (337 nm) triggers a Fluorescence Resonance Energy Transfer (FRET) to the acceptor which then fluoresces at specific wavelength (665 nm).
(§2) This step optimises the protein/peptide ratio that will be used in HTRF screening assay in order to allow the best signal-to-noise ratio. Each new purified protein should be titrate this way as the signal-to-noise ratio may differ from different protein batches. Displacement assay for MLLT1 and MLLT3 was performed by using H3K9 cro peptide (ARTKQTAR(Kcrot)STGGKAPRKQLYK(biotin)).
(§3) A serial dilution of 4× solution of biotinylated peptide was prepared in assay buffer (25 mM HEPES, 20 mM NaCl, 0.05% BSA, 0.05% Tween-20, pH 7.0) covering concentrations from 3.2 μM to 0.2 nM. and 5 μL of each dilution were transferred horizontally to fill 15 columns of a white ProxiPlate-384 Plus shallow well Microplate (Perkin Elmer, USA). A sixteenth column of buffer was also included for a background reference. In parallel, a serial dilution of the 6His-tag protein of interest was prepared in the same way and 5 μL of each dilution were vertically added to the wells containing the peptide dilutions. Buffer has been transferred to the last line of the plate in order to make a no-protein reference. The microplate has been covered and incubated 1 hour at room temperature. A 2× detection mix was prepared in assay buffer by diluting streptavidin conjugated with XL-665 (610SAXLB, Cisbio Bioassays, France) to 1/2000 and anti-6His(Eu) chelate (LANCE Eu-W1024 Anti-6×His, ADO111, Perkinelmer LAS (UK)LTD) to 1/20000, 10 μL were added to each well and the plate has been incubated for 1 to 24 hours at room temperature in the dark. The plate was read in the Pherastar using the HTRF module with dual emission protocol (A=ex. 320 nm em. 665 nm, B=ex. 320 nm em. 620 nm).
(§4) The HTRF ratio was calculated as channel A/B*10000 and the specific signal as follow: specific signal=HTRF Ratio Positive signal—HTRF Ratio Negative signal (without protein). The concentrations of protein and peptide that allow the maximum specific signal without saturation were selected to perform HRTF screening assay described below.
(§5) The compounds were dissolved in DMSO at a stock concentration of 10 mM and dispensed into microplate using the Echo acoustic liquid handler (Labcyte, Beckman Coulter, USA). The assay covers a window of compound concentrations from 20 μM to 20 nM spread in 11 data points in duplicate. Solvent and compound controls were added to each plate in order to calculate the background signal.
(§6) Ten microliters of 2× mix of 6His-protein and biotinylated peptide, the concentrations were determined above, were added to the dispensed compounds and incubated for one hour at room temperature in the dark. Ten microliters of the 2× detection mix was added to each well and the plate was incubated for another hour at room temperature in the dark and the plate was read in order to calculate the HTRF specific signal. The % inhibition values as follows:
(§7) The IC50 values were determined by plotting % inhibition vs compound concentration and fitting the data to a non-linear sigmoidal dose response equation (4 parameter fit): […]
Background: In TR-FRET formats the signal depends on donor and acceptor labels being close together.

In another test the target is T2, MLLT3 (Homo sapiens, UniProt P42568).
T2 sequence (P42568 1-568): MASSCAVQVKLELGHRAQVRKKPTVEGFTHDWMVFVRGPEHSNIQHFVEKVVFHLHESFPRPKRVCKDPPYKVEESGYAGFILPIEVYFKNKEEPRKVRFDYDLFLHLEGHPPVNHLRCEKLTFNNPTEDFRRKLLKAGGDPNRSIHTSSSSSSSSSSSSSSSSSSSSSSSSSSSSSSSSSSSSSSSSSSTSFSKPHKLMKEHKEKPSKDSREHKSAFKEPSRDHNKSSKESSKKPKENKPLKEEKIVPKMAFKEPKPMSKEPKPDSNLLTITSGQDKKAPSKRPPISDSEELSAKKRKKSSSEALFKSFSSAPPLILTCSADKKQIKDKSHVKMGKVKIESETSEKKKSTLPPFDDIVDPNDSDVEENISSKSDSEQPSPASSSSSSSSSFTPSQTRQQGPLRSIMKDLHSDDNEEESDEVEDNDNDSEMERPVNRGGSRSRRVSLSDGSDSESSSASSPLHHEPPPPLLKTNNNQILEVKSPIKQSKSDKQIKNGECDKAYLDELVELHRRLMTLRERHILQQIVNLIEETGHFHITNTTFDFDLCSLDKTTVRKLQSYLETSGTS
The test is described as follows: MLLT3 HTRF IC50 determination assay (H3K9cro peptide displacement). The test is classed as binding.
Excerpt: as §1, §2, §3, §4, §5, §6, §7

For the compound `Cc1nn(CCCCCCCC#Cc2cccc3c2CN(C2CCC(=O)NC2=O)C3=O)c2cc(C(=O)Nc3cc4[nH]c(CN5CCCC5)cc4cn3)ccc12` (centres unmarked) [Example 110, 1-(9-(2-(2,6-dioxopiperidin-3-yl)-1-oxoisoindolin-4-yl)non-8-yn-1-yl)-3-methyl-N-(2-(pyrrolidin-1-ylmethyl)-1H-pyrrolo[3,2-c]pyridin-6-yl)-1H-indazole-6-carboxamide], in the test with MV4-11 cells [1], the IC50 was greater than 1000 nM. At MLLT1 [2], the half-maximal degradation concentration (DC50) amounted to 41 nM. Also, the Dmax on MLLT1 [2] (maximum % degradation observed) stood at 58%.

With `Cc1nn(C)c2cc(C(=O)Nc3cc4[nH]c([C@H]5CCCN5C)cc4cn3)ccc12` (single isomer, unassigned) [Example 76], the IC50 in the test with MV4-11 cells [3] was 40 nM; on MLLT1 [4] (Table 5), 43 nM; on MLLT1 [4] (category, Table 4) it was no more than 100 nM; at MLLT3 (Table 5), 81 nM; on MLLT3 (category, Table 4) it was no more than 100 nM.
